Laboratory results published in ChEMBL document CHEMBL5360545, “Multitargeted drug design strategy for discovery of short-peptide-based HIV-1 entry inhibitors with high potency” (Eur J Med Chem, 2023).
Side chains are listed from the residue outwards. Peptide text beside a SMILES is read from it. * marks the point of attachment. PEG24 = NCCOCCOCCOCCOCCOCCOCCOCCOCCOCCOCCOCCOCCOCCOCCOCCOCCOCCOCCOCCOCCOCCOCCOCCOCCC(=O)O; X3 = Cc1ccc(N(CCCN2CCN(Cc3ccc(F)cc3)CC2)C(=O)C2CCN(C(=O)COCC(=O)*)CC2)cc1Cl; X1 = CC(=O)N1CCC(C(=O)N(CCCN2CCC(Cc3ccc(C(=O)*)cc3)CC2)c2ccc(C)c(Cl)c2)CC1; PEG12 = NCCOCCOCCOCCOCCOCCOCCOCCOCCOCCOCCOCCOCCC(=O)O; PEG8 = NCCOCCOCCOCCOCCOCCOCCOCCOCCC(=O)O; PEG4 = NCCOCCOCCOCCOCCC(=O)O

Tested on: Human immunodeficiency virus 1
Assay: Antiviral activity against HIV-1 Bal-R5 infected in human CEMx174 5.25M7 cells assessed as reduction in p24 antigen level measured after 4 days by ELISA
Type: functional, organism-based
Settings: Human immunodeficiency virus 1, Bal-R5, CEMx174 5.25M7, 96 h

Compound	EC50
CC[C@H](C)[C@H](NC(C)=O)C(=O)N[C@@H](CCC(=O)O)C(=O)N[C@@H](CCC(=O)O)C(=O)N[C@@H](CC(C)C)C(=O)N[C@H](C(=O)N[C@@H](CCCNC(=N)N)C(=O)N[C@@H](C)C(=O)N[C@@H](C)C(=O)N[C@@H](CCC(N)=O)C(=O)N[C@@H](CCC(=O)O)C(=O)N[C@@H](CCC(N)=O)C(=O)N[C@@H](CCC(N)=O)C(=O)N[C@@H](CCCNC(=N)N)C(=O)N[C@@H](CCCCN)C(=O)N[C@@H](CC(N)=O)C(=O)N[C@@H](CCC(=O)O)C(=O)N[C@@H](CCC(=O)O)C(=O)N[C@@H](C)C(=O)N[C@@H](CC(C)C)C(=O)N[C@@H](CCCNC(=N)N)C(=O)N[C@@H](CCC(=O)O)C(=O)N[C@@H](CC(C)C)C(=O)N[C@@H](CCCCNC(=O)CCOCCOCCOCCOCCOCCOCCOCCOCCOCCOCCOCCOCCNC(=O)COCC(=O)N1CCC(C(=O)N(CCCN2CCN(Cc3ccc(F)cc3)CC2)c2ccc(C)c(Cl)c2)CC1)C(N)=O)[C@@H](C)CC (Ac-IEELIRAAQEQQRKNEEALRELK([PEG12-X3])-NH2)	6.26 nM
CC[C@H](C)[C@H](NC(=O)[C@H](CCCCN)NC(=O)[C@H](CCC(N)=O)NC(=O)[C@H](CCC(=O)O)NC(=O)[C@H](Cc1c[nH]c2ccccc12)NC(C)=O)C(=O)N[C@@H](CCC(=O)O)C(=O)N[C@@H](CCC(=O)O)C(=O)N[C@@H](CC(C)C)C(=O)N[C@@H](CC(C)C)C(=O)N[C@@H](CCCCN)C(=O)N[C@@H](CCCCN)C(=O)N[C@@H](C)C(=O)N[C@@H](CCC(=O)O)C(=O)N[C@@H](CCC(=O)O)C(=O)N[C@@H](CCC(N)=O)C(=O)N[C@@H](CCC(N)=O)C(=O)N[C@@H](CCCCN)C(=O)N[C@@H](CCCCN)C(=O)N[C@@H](CC(N)=O)C(=O)N[C@@H](CCC(=O)O)C(=O)N[C@@H](CCC(=O)O)C(=O)N[C@@H](CCC(=O)O)C(=O)N[C@@H](CC(C)C)C(=O)N[C@@H](CCCCN)C(=O)N[C@@H](CCCCN)C(=O)N[C@@H](CC(C)C)C(=O)N[C@@H](CCC(=O)O)C(=O)N[C@@H](CCCCN)C(=O)N[C@@H](CCCCNC(=O)CCOCCOCCOCCOCCNC(=O)c1ccc(CC2CCN(CCCN(C(=O)C3CCN(C(C)=O)CC3)c3ccc(C)c(Cl)c3)CC2)cc1)C(N)=O (Ac-WEQKIEELLKKAEEQQKKNEEELKKLEKK([PEG4-X1])-NH2)	1.11 nM
CC[C@H](C)[C@H](NC(=O)[C@H](CCCCN)NC(=O)[C@H](CCC(N)=O)NC(=O)[C@H](CCC(=O)O)NC(=O)[C@H](Cc1c[nH]c2ccccc12)NC(C)=O)C(=O)N[C@@H](CCC(=O)O)C(=O)N[C@@H](CCC(=O)O)C(=O)N[C@@H](CC(C)C)C(=O)N[C@@H](CC(C)C)C(=O)N[C@@H](CCCCN)C(=O)N[C@@H](CCCCN)C(=O)N[C@@H](C)C(=O)N[C@@H](CCC(=O)O)C(=O)N[C@@H](CCC(=O)O)C(=O)N[C@@H](CCC(N)=O)C(=O)N[C@@H](CCC(N)=O)C(=O)N[C@@H](CCCCN)C(=O)N[C@@H](CCCCN)C(=O)N[C@@H](CC(N)=O)C(=O)N[C@@H](CCC(=O)O)C(=O)N[C@@H](CCC(=O)O)C(=O)N[C@@H](CCC(=O)O)C(=O)N[C@@H](CC(C)C)C(=O)N[C@@H](CCCCN)C(=O)N[C@@H](CCCCN)C(=O)N[C@@H](CC(C)C)C(=O)N[C@@H](CCC(=O)O)C(=O)N[C@@H](CCCCN)C(=O)N[C@@H](CCCCNC(=O)CCOCCOCCOCCOCCOCCOCCOCCOCCNC(=O)c1ccc(CC2CCN(CCCN(C(=O)C3CCN(C(C)=O)CC3)c3ccc(C)c(Cl)c3)CC2)cc1)C(N)=O (Ac-WEQKIEELLKKAEEQQKKNEEELKKLEKK([PEG8-X1])-NH2)	1.52 nM

Continued, values first:

EC50	Compound
0.26 nM	CC[C@H](C)[C@H](NC(C)=O)C(=O)N[C@@H](CCC(=O)O)C(=O)N[C@@H](CCC(=O)O)C(=O)N[C@@H](CC(C)C)C(=O)N[C@H](C(=O)N[C@@H](CCCNC(=N)N)C(=O)N[C@@H](C)C(=O)N[C@@H](C)C(=O)N[C@@H](CCC(N)=O)C(=O)N[C@@H](CCC(=O)O)C(=O)N[C@@H](CCC(N)=O)C(=O)N[C@@H](CCC(N)=O)C(=O)N[C@@H](CCCNC(=N)N)C(=O)N[C@@H](CCCCN)C(=O)N[C@@H](CC(N)=O)C(=O)N[C@@H](CCC(=O)O)C(=O)N[C@@H](CCC(=O)O)C(=O)N[C@@H](C)C(=O)N[C@@H](CC(C)C)C(=O)N[C@@H](CCCNC(=N)N)C(=O)N[C@@H](CCC(=O)O)C(=O)N[C@@H](CC(C)C)C(=O)N[C@@H](CCCCNC(=O)CCOCCOCCOCCOCCOCCOCCOCCOCCOCCOCCOCCOCCOCCOCCOCCOCCOCCOCCOCCOCCOCCOCCOCCOCCNC(=O)c1ccc(CC2CCN(CCCN(C(=O)C3CCN(C(C)=O)CC3)c3ccc(C)c(Cl)c3)CC2)cc1)C(N)=O)[C@@H](C)CC (Ac-IEELIRAAQEQQRKNEEALRELK([PEG24-X1])-NH2)
1.75 nM	CC[C@H](C)[C@H](NC(=O)[C@H](CCCCN)NC(=O)[C@H](CCC(N)=O)NC(=O)[C@H](CCC(=O)O)NC(=O)[C@H](Cc1c[nH]c2ccccc12)NC(C)=O)C(=O)N[C@@H](CCC(=O)O)C(=O)N[C@@H](CCC(=O)O)C(=O)N[C@@H](CC(C)C)C(=O)N[C@@H](CC(C)C)C(=O)N[C@@H](CCCCN)C(=O)N[C@@H](CCCCN)C(=O)N[C@@H](C)C(=O)N[C@@H](CCC(=O)O)C(=O)N[C@@H](CCC(=O)O)C(=O)N[C@@H](CCC(N)=O)C(=O)N[C@@H](CCC(N)=O)C(=O)N[C@@H](CCCCN)C(=O)N[C@@H](CCCCN)C(=O)N[C@@H](CC(N)=O)C(=O)N[C@@H](CCC(=O)O)C(=O)N[C@@H](CCC(=O)O)C(=O)N[C@@H](CCC(=O)O)C(=O)N[C@@H](CC(C)C)C(=O)N[C@@H](CCCCN)C(=O)N[C@@H](CCCCN)C(=O)N[C@@H](CC(C)C)C(=O)N[C@@H](CCC(=O)O)C(=O)N[C@@H](CCCCN)C(=O)N[C@@H](CCCCNC(=O)c1ccc(CC2CCN(CCCN(C(=O)C3CCN(C(C)=O)CC3)c3ccc(C)c(Cl)c3)CC2)cc1)C(N)=O (Ac-WEQKIEELLKKAEEQQKKNEEELKKLEKK(X1)-NH2)
0.35 nM	CC[C@H](C)[C@H](NC(=O)[C@H](CCCCN)NC(=O)[C@H](CCC(N)=O)NC(=O)[C@H](CCC(=O)O)NC(=O)[C@H](Cc1c[nH]c2ccccc12)NC(C)=O)C(=O)N[C@@H](CCC(=O)O)C(=O)N[C@@H](CCC(=O)O)C(=O)N[C@@H](CC(C)C)C(=O)N[C@@H](CC(C)C)C(=O)N[C@@H](CCCCN)C(=O)N[C@@H](CCCCN)C(=O)N[C@@H](C)C(=O)N[C@@H](CCC(=O)O)C(=O)N[C@@H](CCC(=O)O)C(=O)N[C@@H](CCC(N)=O)C(=O)N[C@@H](CCC(N)=O)C(=O)N[C@@H](CCCCN)C(=O)N[C@@H](CCCCN)C(=O)N[C@@H](CC(N)=O)C(=O)N[C@@H](CCC(=O)O)C(=O)N[C@@H](CCC(=O)O)C(=O)N[C@@H](CCC(=O)O)C(=O)N[C@@H](CC(C)C)C(=O)N[C@@H](CCCCN)C(=O)N[C@@H](CCCCN)C(=O)N[C@@H](CC(C)C)C(=O)N[C@@H](CCC(=O)O)C(=O)N[C@@H](CCCCN)C(=O)N[C@@H](CCCCNC(=O)CCOCCOCCOCCOCCOCCOCCOCCOCCOCCOCCOCCOCCNC(=O)c1ccc(CC2CCN(CCCN(C(=O)C3CCN(C(C)=O)CC3)c3ccc(C)c(Cl)c3)CC2)cc1)C(N)=O (Ac-WEQKIEELLKKAEEQQKKNEEELKKLEKK([PEG12-X1])-NH2)
